This note sets out measurements from US20080234243A1, “METHOD OF TREATING AMYLOIDOSIS MEDIATED DISEASES” (priority 2007, published 2008).

This experiment relates to soluble Aβ (1-40) peptide. The experiment is described as follows: In vivo effect on soluble Aβ (1-40) in whole brain homogenates of CB.17 SCID mice (ELISA). To be noted: CB17 SCID mice, oral, 300 mg/kg/day for 20 days, brain extracts; P=0.012 vs. control. How it is done: FIG. 1 provides a graph showing a decrease in soluble AD levels in CB17 SCID mice treated with 2ME2. Mice (5 animals per group) were treated orally for 5 or 20 days with 300 mg/kg/day 2ME2, and soluble Aβ levels were measure in whole brain homogenates. (*P=0.012 vs. control)
CB. 17 SCID mice were treated orally for 5 or 20 days with 300 mg/kg/day 2ME2. At the end of treatment mice were humanely euthanized, and mouse brain was recovered surgically. This tissue was immediately frozen on dry ice until processing for ELISA analysis of soluble Aβ peptide. Serum is also routinely collected for later analysis as well.
Preparation of the Brain Extract Solution
1. Homogenize brains into 15 vol of ice cold TBS, pH 7.4 containing leupeptide (10 ug/ml) and aprotinin (20 ug/ml).
2. Transfer to microcentrifuge tubes and spin 20,000 g for 20 min at 4° C.
3. Remove supernatant (TBS Extract) to ice.
4. Wash once with cold TBS and resuspend in 15 vol of TBS/1% Triton X-100 and protease inhibitors. Incubate 30 min at 4° C. with agitation.
5. Transfer to microcentrifuge tubes and spin 20,000 g for 20 min at 4° C.
6. Remove supernatant (Triton Extract) to ice. […]
Harvested brains were homogenized with a tissue homogenizer, and subjected to serial extraction with TBS followed by TBS/Triton X-100. […] Brains were harvested, and soluble Aβ was assessed. […]
On the technique in general: ELISA stands for enzyme-linked immunosorbent assay.

For `COc1cc2c(cc1O)CC[C@@H]1[C@@H]2CC[C@]2(C)[C@@H](O)CC[C@@H]12` [2ME2, 2-methoxyestradiol], the “decrease in the levels of soluble Aβ (inhibition)” value is given as 46%.
